Laboratory results published in US5610063A, “cDNA for α-N-acetyl-galactosaminidase from Gallus domesticus” (Curators of the University of Missouri, priority 1995, dated 1997).
Changes are numbered by the printed parent chain.

T1: Gallus N-acetyl-α-D-galactosaminidase (Gallus gallus, UniProt Q90744)
T1 construct: the cDNA clone corresponds to the region of the mRNA encoding the mature polypeptide for the chicken α-N-acetyl-galactosaminidase; from tissue; host or cells: chicken liver
T1 sequence (Q90744 1-405 S162A): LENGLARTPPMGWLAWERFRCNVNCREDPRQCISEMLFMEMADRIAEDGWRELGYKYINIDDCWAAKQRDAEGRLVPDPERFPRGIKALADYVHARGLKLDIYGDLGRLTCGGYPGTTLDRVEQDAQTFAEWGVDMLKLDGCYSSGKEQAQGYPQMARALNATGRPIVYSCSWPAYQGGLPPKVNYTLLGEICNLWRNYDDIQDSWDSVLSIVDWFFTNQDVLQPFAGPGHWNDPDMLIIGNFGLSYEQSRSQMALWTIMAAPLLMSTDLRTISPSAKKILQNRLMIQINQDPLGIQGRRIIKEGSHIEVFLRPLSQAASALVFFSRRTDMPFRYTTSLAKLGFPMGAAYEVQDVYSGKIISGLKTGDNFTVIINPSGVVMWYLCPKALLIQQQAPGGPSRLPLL

B1: Gallus N-acetyl-α-D-galactosaminidase (Gallus gallus) (protein)
chain: T1 sequence (Q90744 1-405 S162A)
notes: the cDNA clone corresponds to the region of the mRNA encoding the mature polypeptide for the chicken α-N-acetyl-galactosaminidase; from tissue; host or cells: chicken liver
B2: Affinity Concentrate: purified α-N-acetyl-galactosaminidase after affinity column and concentration (Example 2) (protein, UniProt Q90744 1-405, looked up)
Alpha-N-acetylgalactosaminidas …: T1 sequence (Q90744 1-405 S162A) with A162S

Tests used:
[1] = molecular target: T1, Gallus N-acetyl-α-D-galactosaminidase; assay: Substrate specificity (relative activity); assay type: biochemical, Gallus domesticus; settings: % of enzyme activity on the corresponding conjugate, 2.5 mM PNP conjugates, pH 3.5
[2] = substrate: O=[N+]([O-])c1ccc(O[C@H]2O[C@H](CO)[C@H](O)[C@H](O)[C@H]2O)cc1; assay: Kinetic parameters (Km, turnover number) of Gallus enzyme; assay type: biochemical, Gallus domesticus; settings: other: Table III, Example 1 preparation, 50 mM Na citrate + 1 mg/ml BSA, pH 3.5, mean of six determinations, 37.0 °C
Procedure: (§1) The Kms for ONP- and PNP-N-acetyl-α-D-galactosaminide were determined by varying the substrate concentration in 50 mM Na citrate+1 mg/ml BSA, pH 3.5.

[3] = substrate: CC(=O)N[C@H]1[C@@H](Oc2ccccc2[N+](=O)[O-])O[C@H](CO)[C@H](O)[C@@H]1O; assay: as above; assay type: biochemical, Gallus domesticus; settings: other: Table III, Example 1 preparation, 50 mM Na citrate + 1 mg/ml BSA, pH 3.5, mean of six determinations, 37.0 °C
Procedure: as §1

[4] = substrate: CC(=O)N[C@H]1[C@@H](Oc2ccc([N+](=O)[O-])cc2)O[C@H](CO)[C@H](O)[C@@H]1O; assay: as above; assay type: biochemical, Gallus domesticus
Procedure: as §1

[5] = Enzymatic activity quantitated during the purification; assay type: biochemical; settings: Table V, improved (batch) purification; mean from three different preps
Procedure: Enzymatic activity was quantitated during the purification by measuring production of p-nitrophenol (PNP) from PNP-N-acetyl-α-D-galactosaminide or o-nitrophenol (ONP) from ONP-N-acetyl-α-D-galactosaminide. Enzyme aliquots were incubated in 200 μl of 50 mM Na citrate+1 mg/ml BSA+1.0 mM PNP-N-acetyl-α-D-galactosaminide, pH 3.5, at 37° C. The reactions were quenched with 1.0 ml of 0.25M Na2 CO3 and the OD 405 nm was measured. One unit of activity was defined as 1.0 μmole of substrate hydrolyzed per minute.

[6] = Table IV, Example 1 preparation
[7] = Table VI, improved purification (Example 2)
[8] = other: Example 2 batch preparation, pH 3.5, N=3, 37.0 °C
[9] = other: Table III, Example 1 preparation, 50 mM Na citrate + 1 mg/ml BSA, pH 3.5, mean of six determinations, 37.0 °C

Row | Molecule | Relative Activity [1, 6] [%] | Relative Activity [1, 7] [%] | further results
1 | CC(=O)N[C@H]1[C@@H](Oc2ccc([N+](=O)[O-])cc2)O[C@H](CO)[C@H](O)[C@@H]1O [PNP-N-acetyl-α-D-galactosaminide] | 100.00 | 100.00 | 
2 | O=[N+]([O-])c1ccc(O[C@@H]2OC[C@H](O)[C@H](O)[C@H]2O)cc1 [PNP-α-L-arabinopyranoside] | < 0.08 | < 0.08 | 
3 | CC(=O)N[C@H]1[C@H](Oc2ccc([N+](=O)[O-])cc2)O[C@H](CO)[C@H](O)[C@@H]1O [PNP-N-acetyl-β-D-galactosaminide] | < 0.08 | < 0.08 | 
4 | CC(=O)NC1C(O)CC(Oc2ccc3c(C)cc(=O)oc3c2)(C(=O)O)OC1C(O)C(O)CO (stereo not drawn) [4-MU-N-acetyl-α-neuraminic acid] | < 0.01 | < 0.01 | 
5 | Cc1cc(=O)oc2cc(O[C@H]3O[C@H](CO)[C@H](O)[C@H](O)[C@H]3O)ccc12 [4-MU-α-D-galactopyranoside] | 100.00 | 100.00 | 
6 | CC(=O)N[C@H]1[C@@H](Oc2ccc([N+](=O)[O-])cc2)O[C@H](CO)[C@@H](O)[C@@H]1O [PNP-N-acetyl-α-D-glucosaminide] | < 0.08 | < 0.08 | 
7 | O=[N+]([O-])c1ccc(O[C@@H]2O[C@H](CO)[C@@H](O)[C@H](O)[C@H]2O)cc1 [PNP-β-D-glucopyranoside] | < 0.08 | < 0.08 | 
8 | CC(=O)N[C@H]1[C@H](Oc2ccc([N+](=O)[O-])cc2)O[C@H](CO)[C@@H](O)[C@@H]1O [PNP-N-acetyl-β-D-glucosaminide] | < 0.08 | < 0.08 | 
9 | C[C@@H]1O[C@@H](Oc2ccc([N+](=O)[O-])cc2)[C@@H](O)[C@H](O)[C@@H]1O [PNP-α-L-fucopyranoside] | < 0.08 | < 0.08 | 
10 | C[C@@H]1O[C@H](Oc2ccc([N+](=O)[O-])cc2)[C@@H](O)[C@H](O)[C@@H]1O [PNP-β-L-fucopyranoside] | < 0.08 | < 0.08 | 
11 | O=[N+]([O-])c1ccc(O[C@H]2O[C@H](CO)[C@@H](O)[C@H](O)[C@H]2O)cc1 [PNP-α-D-glucopyranoside] | < 0.08 | < 0.08 | 
12 | O=[N+]([O-])c1ccc(O[C@@H]2O[C@H](CO)[C@H](O)[C@H](O)[C@H]2O)cc1 [PNP-β-D-galactopyranoside] | < 0.08 | < 0.08 | 
13 | B1 |  |  | Km [2]: 10700 µM; kcat [2]: 201 Moles of substrate hydrolyzed per mole of enzyme per minute; Km [3]: 2400 µM; kcat [3]: 637 Moles of substrate hydrolyzed per mole of enzyme per minute; Km [4, 8]: 0.86, S.D.=0.03 mM; kcat [4, 8]: 3318, S.D.=118.5 moles substrate/mole enzyme/minute; Km [4, 9]: 1190 µM; kcat [4, 9]: 2370 Moles of substrate hydrolyzed per mole of enzyme per minute
14 | B2 |  |  | Specific Activity [5]: 71.03 µmol/mg/min
